PMC8160793, “Potent Antimicrobial and Antibiofilm Activities of Feleucin-K3 Analogs Modified by α-(4-Pentenyl)-Ala against Multidrug-Resistant Bacteria” (Biomolecules, 2021)
≈ marks a conversion by molar mass, not a printed value. Each block holds one compound with its values, some of them ahead of it. Square brackets hold non-standard residues; d marks the D form. Peptide text beside a SMILES is read from it. ξ: configuration not given here. ξαMeGly(pent-4-enyl) = C=CCCCC(C)(N)C(=O)O

Key:
S. aureus = experiment: Resistance development assay, sequential passaging; type: cell-based, Staphylococcus aureus; details: serial passage at sub-MIC
Protocol: (§1) Serial passage and MIC determination were used to explore whether the bacteria developed drug resistance. On the first day, the MICs of the peptides were determined as described above. The next day, the bacterial suspension of sub-MIC concentration was cultivated to the mid-log phase. The MICs of the peptides were detected again, and this process was repeated for 20 days. The MICs of the antibiotics, including amoxicillin (AML), ceftazidime (CAZ) and imipenem, were also determined as controls.

MRSA = tested on: MRSA; parameters: method as in PMID 32590058; details: cited from earlier work
E. coli = experiment: Resistance development assay, sequential passaging; type: cell-based; details: serial passage at sub-MIC, 20 passages
Protocol: as §1

P. aeruginosa = experiment: Resistance development assay, sequential passaging; type: cell-based, Pseudomonas aeruginosa; details: serial passage at sub-MIC, 20 passages
Protocol: as §1

A. baumannii 91152 = type: cell-based, Acinetobacter baumannii; details: 91152, 18 h
Protocol: (§2) The minimum inhibitory concentration (MIC) of the Feleucin-K3 analogs was tested by the broth microdilution method. Sensitive bacteria and drug-resistant bacteria were diluted to 1 × 10^6 CFU/mL, according to the McFarland standards. Bacterial suspension and peptide solutions (8–128 μg/mL) were incubated at 37 °C for 18 h. The minimum concentration without obvious bacterial growth was the MIC of the peptides. The stability of the analogs in a physiological salt environment was also investigated. In brief, salt powder (450-mM NaCl) was dissolved in deionized water, and the following investigational steps were the same as those described before. The above steps were repeated several times, until the same value was obtained three times.

A. baumannii 5444 = type: cell-based, Acinetobacter baumannii; details: 5444, 18 h
Protocol: as §2

A. baumannii 9840 = type: cell-based, Acinetobacter baumannii; details: 9840, 18 h
Protocol: as §2

A. baumannii 9234 = type: cell-based, Acinetobacter baumannii; details: 9234, 18 h
Protocol: as §2

A. baumannii 91869 = type: cell-based, Acinetobacter baumannii; details: 91869, 18 h
Protocol: as §2

A. baumannii 9331 = type: cell-based, Acinetobacter baumannii; details: 9331, 18 h
Protocol: as §2

A. baumannii 91810 = type: cell-based, Acinetobacter baumannii; details: 91810, 18 h
Protocol: as §2

A. baumannii 92359 = type: cell-based, Acinetobacter baumannii; details: 92359, 18 h
Protocol: as §2

A. baumannii 9828 = type: cell-based, Acinetobacter baumannii; details: 9828, 18 h
Protocol: as §2

A. baumannii 91105 = type: cell-based, Acinetobacter baumannii; details: 91105, 18 h
Protocol: as §2

A. baumannii 91199 = type: cell-based, Acinetobacter baumannii; details: 91199, 18 h
Protocol: as §2

A. baumannii ATCC 19606 = type: cell-based, Acinetobacter baumannii; details: ATCC 19606, 18 h
Protocol: as §2

A. baumannii 91944 = type: cell-based, Acinetobacter baumannii; details: 91944, 18 h
Protocol: as §2

A. baumannii 8309 = type: cell-based, Acinetobacter baumannii; details: 8309, 18 h
Protocol: as §2

A. baumannii 97830 = type: cell-based, Acinetobacter baumannii; details: 97830, 18 h
Protocol: as §2

A. baumannii 9236 = type: cell-based, Acinetobacter baumannii; details: 9236, 18 h
Protocol: as §2

A. baumannii 51243 = type: cell-based, Acinetobacter baumannii; details: 51243, 18 h
Protocol: as §2

A. baumannii 9336 = type: cell-based, Acinetobacter baumannii; details: 9336, 18 h
Protocol: as §2

A. baumannii 9896 = type: cell-based, Acinetobacter baumannii; details: 9896, 18 h
Protocol: as §2

A. baumannii 98110 = type: cell-based, Acinetobacter baumannii; details: 98110, 18 h
Protocol: as §2

A. baumannii 822144 = type: cell-based, Acinetobacter baumannii; details: 822144, 18 h
Protocol: as §2

E. coli ATCC 25922 = type: cell-based; details: ATCC 25922, 18 h
Protocol: as §2

MRSA 23 = type: cell-based, Staphylococcus aureus; details: 23, 18 h
Protocol: as §2

MRSA 75 = type: cell-based, Staphylococcus aureus; details: 75, 18 h
Protocol: as §2

MRSA 54 = type: cell-based, Staphylococcus aureus; details: 54, 18 h
Protocol: as §2

S. aureus 725 = type: cell-based, Staphylococcus aureus; details: 725, 18 h
Protocol: as §2

S. aureus ATCC 25923 = type: cell-based, Staphylococcus aureus; details: ATCC 25923, 18 h
Protocol: as §2

MRSA 113 = type: cell-based, Staphylococcus aureus; details: 113, 18 h
Protocol: as §2

MRSA 936 = type: cell-based, Staphylococcus aureus; details: 936, 18 h
Protocol: as §2

MRSA ATCC 33591 = type: cell-based, Staphylococcus aureus; details: ATCC 33591, 18 h
Protocol: as §2

MRSA 71 = type: cell-based, Staphylococcus aureus; details: 71, 18 h
Protocol: as §2

MRSA 52 = type: cell-based, Staphylococcus aureus; details: 52, 18 h
Protocol: as §2

MRSA 51 = type: cell-based, Staphylococcus aureus; details: 51, 18 h
Protocol: as §2

MRSA 48 = type: cell-based, Staphylococcus aureus; details: 48, 18 h
Protocol: as §2

S. aureus 794 = type: cell-based, Staphylococcus aureus; details: 794, 18 h
Protocol: as §2

MRSA 74 = type: cell-based, Staphylococcus aureus; details: 74, 18 h
Protocol: as §2

P. aeruginosa ATCC 27853 = type: cell-based, Pseudomonas aeruginosa; details: ATCC 27853, 18 h
Protocol: as §2

Compound: CC1(C)S[C@@H]2[C@H](NC(=O)[C@H](N)c3ccc(O)cc3)C(=O)N2[C@H]1C(=O)O [AML, amoxicillin]
- maximum fold increase of MIC, S. aureus (S. aureus; 20 passages): ≤ 1024 fold
- passage at which resistant mutants were produced (S. aureus; strain taken as S. aureus): 5 passage
- MIC against MRSA (MRSA): up to 128 µg/mL

Compound: CC(C)(O/N=C(\C(=O)N[C@@H]1C(=O)N2C(C(=O)[O-])=C(C[n+]3ccccc3)CS[C@H]12)c1csc(N)n1)C(=O)O [CAZ, ceftazidime]
- fold increase of MIC, E. coli (E. coli): 16 fold
- fold increase of MIC, P. aeruginosa (P. aeruginosa): 32 fold

- MIC, A. baumannii 91152 (A. baumannii 91152): 8 µg/mL (≈ 7.01 µM)
- MIC, A. baumannii 5444 (A. baumannii 5444): 8 µg/mL (≈ 7.01 µM)
- MIC, A. baumannii 9840 (A. baumannii 9840): 8 µg/mL (≈ 7.01 µM)
- MIC, A. baumannii 9234 (A. baumannii 9234): 8 µg/mL (≈ 7.01 µM)
- MIC, A. baumannii 91869 (A. baumannii 91869): 8 µg/mL (≈ 7.01 µM)
- MIC, A. baumannii 9331 (A. baumannii 9331): 8 µg/mL (≈ 7.01 µM)
- MIC, A. baumannii 91810 (A. baumannii 91810): 8 µg/mL (≈ 7.01 µM)
- MIC, A. baumannii 92359 (A. baumannii 92359): 4 µg/mL (≈ 3.51 µM)
- MIC, A. baumannii 9828 (A. baumannii 9828): 8 µg/mL (≈ 7.01 µM)
- MIC, A. baumannii 91105 (A. baumannii 91105): 8 µg/mL (≈ 7.01 µM)
- MIC, A. baumannii 91199 (A. baumannii 91199): 8 µg/mL (≈ 7.01 µM)
- MIC, A. baumannii ATCC 19606 (A. baumannii ATCC 19606): 8 µg/mL (≈ 7.01 µM)
- MIC, A. baumannii 91944 (A. baumannii 91944): 8 µg/mL (≈ 7.01 µM)
- MIC, A. baumannii 8309 (A. baumannii 8309): 8 µg/mL (≈ 7.01 µM)
- MIC, A. baumannii 97830 (A. baumannii 97830): 8 µg/mL (≈ 7.01 µM)
- MIC, A. baumannii 9236 (A. baumannii 9236): 8 µg/mL (≈ 7.01 µM)
- MIC, A. baumannii 51243 (A. baumannii 51243): 8 µg/mL (≈ 7.01 µM)
- MIC, A. baumannii 9336 (A. baumannii 9336): 8 µg/mL (≈ 7.01 µM)
- MIC, A. baumannii 9896 (A. baumannii 9896): 8 µg/mL (≈ 7.01 µM)
- MIC, A. baumannii 98110 (A. baumannii 98110): 8 µg/mL (≈ 7.01 µM)
- MIC, A. baumannii 822144 (A. baumannii 822144): 8 µg/mL (≈ 7.01 µM)
- MIC, E. coli ATCC 25922 (E. coli ATCC 25922): 8 µg/mL (≈ 7.01 µM)
- MIC, MRSA 23 (MRSA 23): 4 µg/mL (≈ 3.51 µM)
- MIC, MRSA 75 (MRSA 75): 4 µg/mL (≈ 3.51 µM)
- MIC, MRSA 54 (MRSA 54): 4 µg/mL (≈ 3.51 µM)
- MIC, S. aureus 725 (S. aureus 725): 4 µg/mL (≈ 3.51 µM)
- MIC, S. aureus ATCC 25923 (S. aureus ATCC 25923): 4 µg/mL (≈ 3.51 µM)
- MIC, MRSA 113 (MRSA 113): 4 µg/mL (≈ 3.51 µM)
- MIC, MRSA 936 (MRSA 936): 4 µg/mL (≈ 3.51 µM)
- MIC, MRSA ATCC 33591 (MRSA ATCC 33591): 4 µg/mL (≈ 3.51 µM)
- MIC, MRSA 71 (MRSA 71): 4 µg/mL (≈ 3.51 µM)
- MIC, MRSA 52 (MRSA 52): 4 µg/mL (≈ 3.51 µM)
- MIC, MRSA 51 (MRSA 51): 4 µg/mL (≈ 3.51 µM)
- MIC, MRSA 48 (MRSA 48): 4 µg/mL (≈ 3.51 µM)
- MIC, S. aureus 794 (S. aureus 794): 8 µg/mL (≈ 7.01 µM)
- MIC, MRSA 74 (MRSA 74): 8 µg/mL (≈ 7.01 µM)
- MIC, P. aeruginosa ATCC 27853 (P. aeruginosa ATCC 27853): 8 µg/mL (≈ 7.01 µM)
Compound: C=CCCCC(C)(NC(=O)[C@H](CCCCN)NC(=O)[C@H](CCCCN)NC(=O)[C@H](CC(C)C)NC(=O)[C@H](CC(C)C)NC(=O)[C@H](CCCCN)NC(=O)[C@H](CC(C)C)NC(=O)[C@@H](N)Cc1ccccc1)C(=O)N[C@@H](CC(C)C)C(N)=O (stereo partly drawn) [Feleucin-K69] (H-FLKLLKK[ξαMeGly(pent-4-enyl)]L-NH2)
